Reference: BindingDB's records for PubMed 7815359 (University of Pennsylvania, 1995)

Molecular target: Mu-type opioid receptor (Rattus norvegicus, UniProt P33535)
Sequence (P33535 whole entry): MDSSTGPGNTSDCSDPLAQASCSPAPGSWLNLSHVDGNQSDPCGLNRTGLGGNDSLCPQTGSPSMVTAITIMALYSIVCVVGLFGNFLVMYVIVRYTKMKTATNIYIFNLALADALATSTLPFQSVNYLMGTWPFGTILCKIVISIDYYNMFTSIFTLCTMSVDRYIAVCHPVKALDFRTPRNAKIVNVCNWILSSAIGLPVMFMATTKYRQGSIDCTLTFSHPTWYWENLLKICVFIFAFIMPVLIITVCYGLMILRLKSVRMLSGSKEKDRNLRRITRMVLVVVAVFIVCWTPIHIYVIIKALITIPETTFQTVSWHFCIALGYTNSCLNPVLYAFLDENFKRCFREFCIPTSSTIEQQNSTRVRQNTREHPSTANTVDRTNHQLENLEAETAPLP

Substance “H-YGGFMTSEKSQTPLVTLFKNAIVKNAHKKGQ-OH [Beta-Endorphin]” has a Ki of 1.7 nM.
